From ChEMBL document CHEMBL1201862, “PubChem BioAssay data set” (2004)
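Cells were grown in 96-well plates and exposed to each compound for 48 hours at five concentrations; endpoints were interpolated linearly between bracketing concentrations, or set to the highest concentration if not reached. GI50 = concentration required for 50% inhibition of growth.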 The source made the active and inactive calls. Rule as the data show it: active = GI50 up to about 1.1 µM and inactive = higher.

Tests used:
Assay in all cases: NCI anticancer screen, dose series, 48 h
DLD-1 = system: DLD-1
DMS-114 = system: DMS-114
DMS-273 = system: DMS-273
HOP-18 = system: HOP-18
M19-MEL = system: M19-MEL
XF498 = system: XF498
KM-20L2 = system: KM-20L2
LXFL 529 = system: LXFL 529
RXF 631 = system: RXF 631

SMILES | GI50 (DLD-1) | GI50 (DMS-114) | GI50 (DMS-273) | GI50 (HOP-18) | GI50 (M19-MEL) | GI50 (XF498) | GI50 (KM-20L2) | GI50 (LXFL 529) | GI50 (RXF 631)
COc1cc(/C=C2\C(=O)N(C(=O)Cc3ccccc3)N=C2C)ccc1O | > 100 µM (inactive) | > 100 µM (inactive) | > 100 µM (inactive) | > 100 µM (inactive) | > 100 µM (inactive) | > 100 µM (inactive) |  |  | 
O=[N+]([O-])c1ccc(C2=Nn3c(nnc3-c3ccc(Cl)cc3)SC2)o1 | 2.06 µM (inactive) | 4.11 µM (inactive) | 14 µM (inactive) | 19.2 µM (inactive) | 2.78 µM (inactive) | 14.3 µM (inactive) | 5.94 µM (inactive) | 4.67 µM (inactive) | 10.9 µM (inactive)
COc1ccc(/C(=N\NC(=O)C(N)=O)C(c2ccc(OC)cc2)C2(O)C(=O)Nc3c(Cl)cccc32)cc1 (stereo not given) | > 100 µM (inactive) | > 100 µM (inactive) |  | > 100 µM (inactive) | > 100 µM (inactive) | > 100 µM (inactive) | > 100 µM (inactive) | > 100 µM (inactive) | 
N#CCCN(CCC#N)c1ccc(/C=C2\N=C(c3cc([N+](=O)[O-])ccc3Cl)OC2=O)cc1 |  | 25.4 µM (inactive) | > 100 µM (inactive) |  | 20.5 µM (inactive) | 35.4 µM (inactive) | > 100 µM (inactive) | 18.1 µM (inactive) | 
COc1cc2c(c(O)c1C)C(=O)CC(c1ccccc1)O2 (stereo not given) | 55.2 µM (inactive) | 50.7 µM (inactive) |  | 61 µM (inactive) | 45.8 µM (inactive) |  | 15.1 µM (inactive) | 56.2 µM (inactive) | 41.4 µM (inactive)
NC(=S)N/N=C/c1nccc2ccccc12 | 1.12 µM (active) | 0.361 µM (active) | 0.272 µM (active) | 1.21 µM (inactive) | 0.918 µM (active) |  | 0.375 µM (active) | 1.96 µM (inactive) | 
CN(Cc1ccccc1)C1(N(C)Cc2ccccc2)CC1 | > 100 µM (inactive) | > 100 µM (inactive) | > 100 µM (inactive) | > 100 µM (inactive) | > 100 µM (inactive) | > 100 µM (inactive) | > 100 µM (inactive) | > 100 µM (inactive) | 
CC(C)(c1ccc(Oc2ccc(C#N)c(C#N)c2)cc1)c1ccc(Oc2ccc(C#N)c(C#N)c2)cc1 | > 10 µM (inactive) | > 10 µM (inactive) |  | > 10 µM (inactive) | > 10 µM (inactive) | > 10 µM (inactive) | > 10 µM (inactive) | > 10 µM (inactive) | > 10 µM (inactive)
O=C1C(C2=[N+]([O-])c3ccccc3C2=O)=[N+]([O-])c2ccccc21 | 23.9 µM (inactive) | 17.9 µM (inactive) | 30.9 µM (inactive) | 20.2 µM (inactive) | 24.3 µM (inactive) |  |  | 17 µM (inactive) | 
O=C(O)CCCc1cc2c(s1)-c1cccc3cccc-2c13 | 39 µM (inactive) |  | 37.8 µM (inactive) |  |  | 36.6 µM (inactive) | 52.2 µM (inactive) | 35 µM (inactive) | 
C/C(=C(/C)c1cc[n+](C)cc1)c1cc[n+](C)cc1 | 39.9 µM (inactive) | 16.2 µM (inactive) | 36.1 µM (inactive) | > 75 µM (inactive) |  |  | > 75 µM (inactive) | 69.8 µM (inactive) | 
CC1=CP(=O)(OC(C)C)C=C(C)C1=C(Cl)Cl (stereo not given) | > 100 µM (inactive) | 50.1 µM (inactive) | 44.7 µM (inactive) | > 100 µM (inactive) | 38.4 µM (inactive) | > 100 µM (inactive) | 39.1 µM (inactive) | 30.7 µM (inactive) | 11.8 µM (inactive)
COc1cc(Nc2nc3ccccc3nc2-c2cccs2)cc(OC)c1OC | 23.7 µM (inactive) |  | 29.2 µM (inactive) | > 100 µM (inactive) | 40.5 µM (inactive) | 19.2 µM (inactive) | 36.1 µM (inactive) | 17.3 µM (inactive) | 
CC1=Nc2ccccc2SC(c2c(Cl)cccc2Cl)C1 (stereo not given) | 0.331 µM (active) | 1.52 µM (inactive) | 0.792 µM (active) | 3.51 µM (inactive) | 1.16 µM (inactive) | 1.8 µM (inactive) | 1.59 µM (inactive) | 0.5 µM (active) | 
COc1ccccc1-n1c(C)nc2ccccc2c1=O | > 100 µM (inactive) | > 100 µM (inactive) | > 100 µM (inactive) | > 100 µM (inactive) | > 100 µM (inactive) |  | > 100 µM (inactive) | > 100 µM (inactive) | 
CC(=O)Oc1cc(OC(C)=O)c(OC(C)=O)c2c1CC1C(=O)C3(CCc4ccccc43)C(=O)C1C2 (stereo not given) | 14.2 µM (inactive) | 11.7 µM (inactive) | 18.1 µM (inactive) | 28.5 µM (inactive) | 15.7 µM (inactive) | 14.7 µM (inactive) | 22.8 µM (inactive) | 14.4 µM (inactive) | 
C[Si]1(C)C(c2ccccc2)=CC2C(c3ccccc3)(c3ccccc3)OC21c1ccccc1 (stereo not given) | > 100 µM (inactive) | 97.9 µM (inactive) | > 100 µM (inactive) | > 100 µM (inactive) | > 100 µM (inactive) | > 100 µM (inactive) | 92.9 µM (inactive) | > 100 µM (inactive) | > 100 µM (inactive)
CC/C(CC(=O)CCC(=O)Nc1ccccc1[N+](=O)[O-])=N/NC(=O)C[n+]1ccccc1 |  |  | > 100 µM (inactive) | > 100 µM (inactive) | > 100 µM (inactive) |  | > 100 µM (inactive) | > 100 µM (inactive) | > 100 µM (inactive)
C=CC/N=C1\N=C(C)C(C(=O)OCC)S1 (stereo not given) | > 100 µM (inactive) | > 100 µM (inactive) | > 100 µM (inactive) | > 100 µM (inactive) |  | > 100 µM (inactive) | > 100 µM (inactive) | > 100 µM (inactive) | > 100 µM (inactive)
CC(C)(C)c1cc([Si](C)(C)C)c(C#N)c([Si](C)(C)C)c1 | > 100 µM (inactive) | 33.8 µM (inactive) | 49.1 µM (inactive) | > 100 µM (inactive) | 43.2 µM (inactive) | 24.2 µM (inactive) | > 100 µM (inactive) | > 100 µM (inactive) | 
Cc1ccc(CC(C)N)cc1 (stereo not given) | > 100 µM (inactive) | > 100 µM (inactive) | > 100 µM (inactive) | > 100 µM (inactive) |  |  | > 100 µM (inactive) | > 100 µM (inactive) | > 100 µM (inactive)
COc1cc([C@@H]2c3cc4c(cc3[C@@H](NC(=O)c3cccc(C#N)c3)C3COC(=O)[C@@H]32)OCO4)cc(OC)c1O (stereo not given in full) | 2 µM (inactive) |  | 0.0847 µM (active) | > 100 µM (inactive) |  |  | 1.63 µM (inactive) | 5.93 µM (inactive) | 1.56 µM (inactive)
Cc1cc(O)nc(NNC(C#N)c2ccco2)n1 (stereo not given) | > 100 µM (inactive) | > 100 µM (inactive) | > 100 µM (inactive) | > 100 µM (inactive) | > 100 µM (inactive) |  | > 100 µM (inactive) | > 100 µM (inactive) | 
CN(C(=O)c1ccc([N+](=O)[O-])cc1)c1ccccc1 | > 100 µM (inactive) | > 10 µM (inactive) | > 100 µM (inactive) | > 100 µM (inactive) | > 100 µM (inactive) | > 100 µM (inactive) | > 100 µM (inactive) | > 100 µM (inactive) | > 100 µM (inactive)
COc1ccc2nc3ccccc3c(NCCCCCCN(CCCl)CCCl)c2c1 | 0.109 µM (active) | 0.155 µM (active) | 0.0328 µM (active) |  | 0.132 µM (active) | 0.136 µM (active) | 0.0776 µM (active) | 0.107 µM (active) | 0.104 µM (active)
C/C(=N\NC(N)=S)c1ccc(C)c(C)c1 | 30.9 µM (inactive) | 16.6 µM (inactive) | > 100 µM (inactive) | 30.6 µM (inactive) | 35.7 µM (inactive) | 19.4 µM (inactive) | 44.7 µM (inactive) | 19.4 µM (inactive) | 75.3 µM (inactive)
CC(C)N(C(=O)C12CC3CC(CC(C3)C1)C2)C(C)C | > 50 µM (inactive) | > 50 µM (inactive) | > 50 µM (inactive) | > 50 µM (inactive) | > 50 µM (inactive) |  | > 50 µM (inactive) | > 50 µM (inactive) | 
CC1(C)CC(/C=C2/OC(=O)c3ccccc32)=C(C#N)C(=O)O1 | > 100 µM (inactive) |  | > 100 µM (inactive) |  | > 100 µM (inactive) | > 100 µM (inactive) | > 100 µM (inactive) | > 100 µM (inactive) | > 100 µM (inactive)
